Measurements: US11370769B2, “TRPC5 inhibitors and methods of using same” (BOARD OF REGENTS OF THE UNIVERSITY OF NEBRASKA, priority 2017, dated 2022)

Tests used:
[1] = molecular target: T1, TRPC5 (Homo sapiens, UniProt Q9UL62); experiment: Syncropath % inhibition TRPC5; type: cell-based; conditions: read-out: Syncropath % inhibition TRPC5 @3 μM; heading: Syncropath % inhibition TRPC5 @3
T1 construct: expressed in transfected cells; host or cells: HEK293
T1 sequence (Q9UL62 1-973): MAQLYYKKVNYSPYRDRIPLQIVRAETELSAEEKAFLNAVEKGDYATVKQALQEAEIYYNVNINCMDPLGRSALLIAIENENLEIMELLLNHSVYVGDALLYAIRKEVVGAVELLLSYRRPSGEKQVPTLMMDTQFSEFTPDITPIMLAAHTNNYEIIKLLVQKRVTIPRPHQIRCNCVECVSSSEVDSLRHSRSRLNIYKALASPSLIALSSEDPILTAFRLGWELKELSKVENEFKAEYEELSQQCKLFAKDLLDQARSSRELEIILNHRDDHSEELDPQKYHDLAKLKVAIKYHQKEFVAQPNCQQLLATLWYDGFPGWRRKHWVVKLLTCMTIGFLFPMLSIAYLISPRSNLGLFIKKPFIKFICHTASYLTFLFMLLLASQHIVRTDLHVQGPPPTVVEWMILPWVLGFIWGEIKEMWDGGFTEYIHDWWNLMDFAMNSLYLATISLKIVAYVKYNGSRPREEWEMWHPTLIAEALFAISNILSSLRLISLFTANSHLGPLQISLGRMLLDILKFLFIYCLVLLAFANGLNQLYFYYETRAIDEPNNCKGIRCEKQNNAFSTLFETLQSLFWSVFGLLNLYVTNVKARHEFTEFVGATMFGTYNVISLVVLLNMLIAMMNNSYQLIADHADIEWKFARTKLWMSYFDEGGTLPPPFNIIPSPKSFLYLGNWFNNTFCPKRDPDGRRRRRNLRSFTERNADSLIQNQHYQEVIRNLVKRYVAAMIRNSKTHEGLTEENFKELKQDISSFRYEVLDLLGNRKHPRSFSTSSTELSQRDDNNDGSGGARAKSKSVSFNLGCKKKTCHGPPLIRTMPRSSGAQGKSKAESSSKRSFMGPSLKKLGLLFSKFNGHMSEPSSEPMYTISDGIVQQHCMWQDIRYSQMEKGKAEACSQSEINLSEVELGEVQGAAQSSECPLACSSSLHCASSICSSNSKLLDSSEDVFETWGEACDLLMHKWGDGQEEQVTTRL

[2] = test system: podocytes; experiment: ROS assay in wild-type podocytes treated with AngII; type: cell-based, mouse; conditions: WT podocytes, AngII 10 μM, 30 μM compound, 3 hours
Experimental: (§1) Podocyte culture and viral transduction: Immortalized mouse podocytes were cultured as previously described (10, 11). Podocyte viral transduction was performed using lentivirus as previously described (10, 11). Briefly, lentivirus production was carried out in HEK293T cells at 60% confluence, and viral particles were collected two days after transfection and purified by centrifugation at 1,000 rcf for 5 min. Purified lentivirus was frozen at −80° C. until further use. Podocytes were transduced with lentivirus after 7 days of differentiation, and assays were performed 5 days after viral transduction.
ROS and cell viability assays: For ROS experiment in FIG. 4A, mature podocytes were cultured as previously described. Cells were incubated with CellRox Deep Red reagent (ThermoFisher) for 30 min at 37° C. Then cells were treated with DMSO, 10 μM angiotensin II, 10 μM angiotensin II with 30 μM AC1903, or 10 μM angiotensin II with 30 μM N-acetyl-L-cysteine (NAC) for 3 hours at 37° C. Cells were washed with PBS twice and fluorescence images were observed using Olympus IX71 microscopy. Fluorescence intensities were then analyzed using ImageJ software.

[3] = test system: caAT1R podocytes; experiment: Cell viability assay in podocytes expressing caAT1R; type: cell-based, mouse; conditions: 30 μM ML204, 30 μM AC1903 or 50 μM NSC23677 for 36 hours
Experimental: as §1
(§2) For experiments in FIG. 4B/C, pCDNA3.1 AT1AR-Δ324 (rat AT1R NM_030985.4) containing HA tag (Plasmid #45635, Addgene) underwent site directed mutagenesis (Agilent) to generate the N111S substitution. For FIG. 4B, differentiated podocytes were transduced with the AT1A-N111S/Δ324 construct in six-well plates. Six days after viral transduction, cells were treated with either vehicle, 30 μM ML204, 30 μM AC1903 or 50 μM NSC23677 for 36 hours. Intracellular production of ROS was measured using a cell-permeable fluorescent dye, 5-(and-6)-chloromethyl-2′,7′-dichlorodihydrofluorescein diacetate, acetyl ester (CM-H2DCFDA, Molecular Probes). Cells were incubated with 5 μM CM-H2DCFDA at 37° C. for 45 min in Hanks' balanced salt solution (HBSS). Cells were then collected, resuspended in HBSS, stained with propidium iodide and the fluorescence intensity was assessed by flow cytometry using MACSQuant Analyzer (Miltenyi Biotec, Bergisch Gladbach, Germany). Living cells, which were PI negative, were selected by FACS gating and the fluorescence of CM-H2DCFDA was recorded on the FL-1 channel (525 nm). For FIG. 4C, differentiated podocytes were transduced with the AT1A-N111S/Δ324 construct in 96 well plates. Six days after transduction, the cells were treated with either vehicle, 30 μM ML204, 30 μM AC1903 or 50 μM NSC23677 for 36 hours. […]

[4] = test system: caAT1R podocytes; experiment: ROS assay in caAT1R expressing podocytes; type: cell-based, mouse; conditions: 30 μM ML204, 30 μM AC1903 or 50 μM NSC23677 for 36 hours
Experimental: as §1, §2

Question: With `Fc1ccc(Cc2c(NCc3ccco3)nc3ccccn23)cc1` [Compound 5, 3-(4-fluorobenzyl)-N-(furan-2-ylmethyl)imidazo[1,2-a]pyridin-2-amine] as the molecule, how does the inhibition at 3 µM [1] read?
Answer: Its inhibition at 3 µM is 88.7%.

Question: How did the inhibition at 3 µM [1] turn out when `c1ccc(Cc2c(N3CCCC3)nc3ccccn23)cc1` [Compound 7, 3-benzyl-2-(pyrrolidin-1-yl)imidazo[1,2-a]pyridine] was run?
Answer: The inhibition at 3 µM was 33.4%.

Question: How did the “AngII-induced ROS” value [2] turn out when `CC(=O)N[C@@H](CS)C(=O)O` [NAC, N-acetyl-L-cysteine, reference compound] was run?
Answer: The value was “rescued podocytes from AngII-induced ROS”.

Question: `CCN(CC)CCSc1c2ccc(Cl)cc2nc2ccc(OC)cc12.Cl` [NSC23677] was tested. Which “podocyte cell death on caAT1R expression” value [3] did it give?
Answer: The value was “protected from cell death”.

Question: And the “caAT1R-induced ROS generation” value [4]?
Answer: Its value is “blocked caAT1R-induced ROS generation”.
